Laboratory results: patent EP2487185A1, “Hexapeptide with improved activity in the repair of cellular DNA of dermal cells” (Clinuvel Pharmaceuticals Limited, priority 2011, dated 2012)
Non-standard residues stand in square brackets, D forms with d. Nle = CCCC[C@H](N)C(=O)O

Key:
Format in all cases: cell-based, human
[1] = system: melanocytic strains 1563c and 102b; assay: Ultrastructural visualization of DOPA-stained HM, electron microscopy; details: 0.1 nM or 1 nM CUV9900 or 1 nM MSH
Procedure: (§1) With reference to Figs. 14 and 15, two melanocytic strains, a lightly pigmented strain 1563c of Fig. 14 and strain 102b of Fig. 15 were plated in 4-well chamber slides and treated […] with either 0.1 nM or 1 nM CUV9900 or 1 nM MSH for a total of 6 days. Cells were processed for electron microscopy in the presence or absence of histochemical reaction with DOPA. Microtome sections were analyzed in a JEOL JEM-1230 transmission electron microscope and photomicrographs (15,000 X) of the perinuclear area and dendrites were taken for each experimental group.

melanocytes strain 105c = assay: cAMP levels, radioimmunoassay; details: 45 min, 0.1 mM IBMX
Procedure: Dose-response experiments were carried out on three melanocytic strains, namely strains 1513c, 1505b and 105c melanocytes were treated with 1 pM-10 nM CUV9900 or NDP-MSH, or with 0.1-10 nM MSH for 45 minutes in the presence of 0.1 mM isobutyl methylxanthine (IBMX). The results obtained from strain 1513c are shown in Fig. 3, the results obtained from strain 1505b are shown in Fig. 5a and the results obtained from strain 105c are shown in Fig. 5b. The strains 1505b and 1513c were obtained from the same human adult while the strain 105c was obtained from another human adult.
Cyclic AMP is the second messenger for the melanocortin-1 receptor, and assessment is usually performed indicating cellular activity reflective of melanogenesis. Cyclic AMP levels were determined using ^125I-labeled radioimmunoassay kit (Perkin Elmer, Waltham, MA), in human melanocytes that were treated with 0 (control), 0.1-10.0 nM α-MSH, or 0.001-10 nM NDP-MSH or 0.001-10.0 nM CUV 9900 for 45 min. in the presence of 0.1 mM IBMX, a phosphodiesterase inhibitor to prevent cAMP degradation. Triplicate wells were included in each group, and duplicate samples from each well were assayed for cAMP levels. Each data point is the mean percent of control of 6 determinations/group ±S.E.

[2] = system: melanocytic strain 1505b and melanocytic strain 10.3c; assay: UV-induced generation of hydrogen peroxide, luminol luminescence; details: 1 nM; for UV-induced hydrogen peroxide generation: 105 mJ/cm^2 UV, 0, 30 and 45 minutes after UV irradiation
From the text: (§2) With reference to Figs. 10 and 11, melanocytes were irradiated with a bank of FS 20 lamps, with 75% emission in the UVB, and 25% emission in the UVA spectra, with peak emission at 313 nm wavelength. Any emission of UVC rays from the UV source (FS 20 lamps) was blocked by Kodacel filter. Prior to irradiation, the culture medium was replaced by PBS, which was removed after UV exposure, and fresh medium added.
(§3) Melanocytes were irradiated with 105 mJ/cm^2 UV, and treated immediately while in PBS with 0, 1 nM α-MSH or 1 nM CUV9900. Generation of hydrogen peroxide, representative of reactive oxygen species (ROS), was determined by measuring the luminescence of luminol at 0, 30, and 45 min after UV exposure. Triplicate dishes were included in each group, and duplicate samples from each dish were used for measurement of hydrogen peroxide at each time point. Each data point represents the mean of 6 determinations/group ±S.E.

melanocytic strain 1505b = assay: UV-induced generation of hydrogen peroxide (luminol luminescence); details: strain 1505b; 1 nM; 105 mJ/cm^2 UV; 0, 30 and 45 minutes after UV
From the text: as §2, §3

melanocytic strain 10.3c = assay: as above; details: 1 nM, 105 mJ/cm^2 UV, 0, 30 and 45 minutes after UV
From the text: as §2, §3

[3] = system: lightly pigmented strain 1563c and strain 102b; assay: Ultrastructural visualization of DOPA-stained HM (electron microscopy); details: 0.1 nM or 1 nM CUV9900 or 1 nM MSH; strains 1563c and 102b
Procedure: as §1

melanocyte strain 1513c = assay: Tyrosinase activity as a measure of stability / residual effect; details: strain 1513c; 1 nM peptide incubated 5-7 hours at 37 degrees Celsius
Procedure: To determine the residual effect of CUV9900, as compared to NDP-MSH and α-MSH, on tyrosinase activity, melanocytes were treated with either CUV9900 or NDP-MSH at the concentrations previously described for a total of 3 days. Tyrosinase activity was measured at the end of the 3 days of treatment, and 2 and 4 days after maintenance of the melanocytes in the complete absence of any treatment. With continued reference to Figs. 7, 8 and 9, to determine the stability of CUV9900 versus that of NDP-MSH and α-MSH, melanocytes were treated with 1 nM of each peptide, namely with CUV9900, NDP-MSH and α-MSH, for a total of 6 days, or with 1 nM peptides that were incubated for 5 hours at 37 °C prior to addition to the cultures, every other day, for a total of 6 days. Tyrosinase activity was measured at the end of treatment. In the experiments, cell number represents the mean percent of control of 3 determinations/ group ±SE, and tyrosinase activity data represent the mean percent of control of 6 determinations ±S.E. It should be noted that for the sake of reproducibility the experiment of strain 1513c of Fig. 9 was performed once more 6 months later than the experiment of Fig. 7. […] Melanocytes were treated for 3 days with the designated concentrations of CUV9900, NDP-MSH, or MSH, then maintained in absence of peptides for 4 days. Tyrosinase activity was determined 3 days after treatment. Comparison of stability of CUV9900, NDP-MSH and MSH was compared in 1513c, as shown in Fig. 7; the strain was treated for 6 days with 1 nM CUV9900, NDP-MSH or MSH with fresh medium and peptide replenished every 2 days. Melanocytes were treated according to the same experiment protocol but each peptide was incubated for 5-7 hours at 37 degrees Celsius. […] The assessment of tyrosinase was statistically different from control, as determined by ANOVA (p=<0.05).

| Substance | melanosomes in the perinuclear area and dendrites [1] | elevation of cAMP in comparison to NDP (melanocytes strain 105c; 0.01 nM and 0.1 nM) | cAMP compared with MSH (melanocytes strain 105c; 0.1 nM, 1 nM and 10 nM) | UV-induced hydrogen peroxide generation [2] | hydrogen peroxide generation in comparison with both NDP-MSH and MSH ([2]; at 45 minutes after irradiation) | UV-induced hydrogen peroxide generation (melanocytic strain 1505b) | UV-induced hydrogen peroxide generation (melanocytic strain 10.3c) | melanosomes, electron microscopy [3] | effect of incubation of the peptide on stimulation of tyrosinase activity (melanocyte strain 1513c) |
| --- | --- | --- | --- | --- | --- | --- | --- | --- | --- |
| Ac-Nle-Glu His-D-Phe-Arg-Trp-NH2 (SEQ ID NO: 1) (Ac-[Nle]EH[dF]RW-NH2; SMILES CCCC[C@H](NC(C)=O)C(=O)N[C@@H](CCC(=O)O)C(=O)N[C@@H](Cc1c[nH]cn1)C(=O)N[C@H](Cc1ccccc1)C(=O)N[C@@H](CCCNC(=N)N)C(=O)N[C@@H](Cc1c[nH]c2ccccc12)C(N)=O) [CUV9900] | increased mature (stage IV) melanosomes | less elevation of cAMP | significantly higher | significant reduction | lower hydrogen peroxide generation |  |  |  |  |
| Ac-Ser-Tyr-Ser-Met-Glu-His-Phe-Arg-Trp-Gly-Lys-Pro-Val-NH2 (SEQ ID NO: 3) [alpha-MSH, reference compound] | increased mature (stage IV) melanosomes |  |  | significant reduction |  |  |  |  |  |
| Ac-Ser-Tyr-Ser-Met-Glu-His-Phe-Arg-Trp-Gly-Lys-Pro-Val-NH2 [alpha-MSH, reference compound] |  |  |  |  |  | significant reduction of UV-induced hydrogen peroxide generation | significant reduction of UV-induced hydrogen peroxide generation | increased mature (stage IV) melanosomes in the perinuclear area and more so in dendrites | totally abolished its effect on tyrosinase activity |
